Measured values as given in patent publication US20150087683A1, “TREATMENT METHOD FOR STEROID RESPONSIVE DERMATOSES” (GlaxoSmithKline Intellectual Property (No.2) Limited, priority 2012, published 2015).
Where “and” joins values, the source holds several entries; their conditions need not be identical. Equal values may be shown once.

Columns and labels:
MCF7 cells = experiment: CMap analysis using psoriasis disease signature against mRNA expression profiles of compound-treated MCF7 cells (Assay #1); format: cell-based, human
Description: A general overview of the experimental protocol is indicated below.
The flask is incubated at 37 C for ˜2 minutes to dissociate the cells. • The dissociated cells are harvested with culture media, ˜10 ml/flask. • The harvested cell suspensions are pooled and re-suspended to ensure a homogenous suspension. • The suspension is divided into approximately 1e10̂6 cells per well. • The cells are spun down and re-suspended in fresh culture media to 1e10̂6 cells/2 mL media. • 2 ml of the adjusted cell suspension is dispensed into each well of 6-well plates. • The 6-well plates are incubated overnight at approximately 37 C: 5% CO2.
• An assay block, containing 3 ul 10 mM compound (small molecule)/well, is allowed to return to room temperature. • Culture media is warmed to 37 C. • 600 ul culture media is added to each well of assay block (containing 3 ul 10 mM compound). (=200× dilution) • Intermediate dilution is then 50 uM. • 500 ul of the intermediate dilution is transferred directly on to cells in 6-wells plated (in 2 ml) from previous day. (=5× dilution) • Cells then have 2.5 ml media on them. Final compound concentration is then 10 uM, final DMSO concentration is then 0.1%. • Treated cells are then returned to the incubator and treatment time is noted. • By way of example, if the final treatment concentration is to be something other than 10 uM, the stock should be adjusted first in DMSO so that the […] dilution still delivers 0.1% DMSO final.
• Fresh RLT buffer (QIAGEN)+2-Me is prepared. • After 6 hours of treatment, the 6-well plates are removed from incubator. • The test compound is aspirated from the cell monolayer. • 350 ul of RLT buffer is added per well. • Cells are scraped and the contents of each well is transferred to an appropriately labeled microfuge tube. • Freeze and store the samples at −80 C.
Frozen samples were shipped to Expression Analysis, Inc. Durham N.C. (EA) to generate RNA profiling data. To generate whole genome RNA expression profiles, samples were processed for RNA purification and hybridization to IllumanHT-12-V4 Expression BeadChips.
The significance of particular set of compound instance(s) of interest is estimated by permutation pvalue.

primary keratinocytes = experiment: CMap analysis using psoriasis disease signature against mRNA expression profiles of compound-treated primary keratinocytes (Assay #2); format: cell-based, human; conditions: for Ks down / Ks up / Raw Score / Scale Score: Keratinocyte
Description: The general procedure of Assay #1 was repeated with Compound C with substitution of primary keratinocytes. Primary keratinocytes were purchased from Zen-Bio, Inc. and grown in Zen-Bio, Inc. human adult keratinocyte growth medium (cat# KM-2).
Following the general procedure of Assay #1 for Day 1, keratinocytes plated on T225 flasks were trypsinized and resuspended in 17.4 mL of KM-2 medium. The cells were then seeded in the 6-well plates with 0.5×10^6 cells per well in a total 4 mL KM-2 medium.
Following the general procedure of Assay #1 for Day 2, keratinocytes were treated with the compound at the final concentrations of 1 uM and 10 uM for 6 hours. KM-2 medium containing test compound is aspirated from the cell monolayer. 350 ul of RLT buffer is added per well, the contents in each well were scraped and transferred to an appropriately labeled microfuge tube. Samples were frozen and stored at −80 C.
The subsequent sample processing, RNA purification and hybridization to the chips for microarray experiments were conducted by Expression Analysis, Inc. Durham N.C. (EA).

plaques of psoriasis = experiment: Clinical result: psoriasis plaques in a patient of cancer trial PCS113124; format: in vivo; conditions: human, patient 1200
Source text: Compound C was in human clinical trials for the treatment of cancer.

## Cn1ncc(Cl)c1-c1cc(C(=O)N[C@H](CN)Cc2ccc(F)c(F)c2)oc1Cl [Compound C, N-{(1S)-2-amino-1-[(3,4-difluorophenyl)methyl]ethyl}-5-chloro-4-(4-chloro-1-methyl-1H-pyrazol-5-yl)-2-furancarboxamide]
MCF7 cells; MCF7, 10 uM, 6 hours treatment
  Enrichment Score: −0.8835
  Mean CMap Score: −0.1867
MCF7 cells; MCF7, 10 uM, 6 hours treatment, individual instance scores
  CMap Score Distribution: (−0.17 −0.17 and −0.21)
MCF7 cells; MCF7 cells
  gene expression changes versus gene expression changes observed in psoriasis: negatively correlated
Primary keratinocytes; 1 uM, Day 1
  Ks down: 0.112
  Ks up: −0.22
  Raw Score: −0.3324
  Scale Score: −0.6723
Primary keratinocytes; 1 uM, Day 2
  Ks down: 0.172
  Ks up: −0.248
  Raw Score: −0.4204
  Scale Score: −0.8504
Primary keratinocytes; 1 uM, Day 3
  Ks down: 0.124
  Ks up: −0.139
  Raw Score: −0.2625
  Scale Score: −0.5309
Primary keratinocytes; 10 uM, Day 1
  Ks down: 0.112
  Ks up: −0.213
  Raw Score: −0.3251
  Scale Score: −0.6576
Primary keratinocytes; 10 uM, Day 2
  Ks down: 0.115
  Ks up: −0.296
  Raw Score: −0.4104
  Scale Score: −0.8302
Primary keratinocytes; 10 uM, Day 3
  Ks down: 0.114
  Ks up: −0.241
  Raw Score: −0.3551
  Scale Score: −0.7182
Primary keratinocytes; primary keratinocytes
  gene expression changes versus gene expression changes observed in psoriasis: negatively correlated
Plaques of psoriasis
  course of mild plaques of psoriasis during treatment: generally got better and even disappeared at times
